Laboratory results from patent US11319299B2, “Substituted carboxamides as inhibitors of WDR5 protein-protein binding” (PROPELLON THERAPEUTICS INC., priority 2016, dated 2022).

These molecules were tested against WDR5 (Homo sapiens (Human), UniProt P61964) (assay: Surface Plasmon Resonance (SPR) assay, KD and residence time). Conditions: surface plasmon resonance (SPR) assay; read-out: WDR5 binding affinity (KD).
Assay type: binding

Compound	Kd
COc1cc(=O)[nH]cc1C(=O)Nc1cc(-c2cnc(N3CCOCC3)nc2)c(F)cc1N1C[C@@H](C)N(C)[C@@H](C)C1 [Example 65, N-[4-fluoro-5-(2-morpholin-4-ylpyrimidin-5-yl)-2-[(3R,5S)-3,4,5-trimethylpiperazin-1-yl]phenyl]-4-methoxy-6-oxo-1H-pyridine-3-carboxamide]	57.2 nM
C[C@@H]1CN(c2cc(F)c(-c3ccnc(OCC4CC4)c3)cc2NC(=O)c2c[nH]c(=O)cc2C(F)(F)F)C[C@H](C)N1C [Example 66, N-[5-[2-(cyclopropylmethoxy)pyridin-4-yl]-4-fluoro-2-[(3R,5S)-3,4,5-trimethylpiperazin-1-yl]phenyl]-6-oxo-4-(trifluoromethyl)-1H-pyridine-3-carboxamide]	1.16 nM
C[C@@H]1CN(c2cc(F)c(-c3ccccc3CNC3CCCCC3)cc2NC(=O)c2c[nH]c(=O)cc2C(F)(F)F)C[C@H](C)N1C [Example 67, N-[5-[2-[(cyclohexylamino)methyl]phenyl]-4-fluoro-2-[(3R,5S)-3,4,5-trimethylpiperazin-1-yl]phenyl]-6-oxo-4-(trifluoromethyl)-1H-pyridine-3-carboxamide]	4.82 nM
C[C@@H]1CN(c2cc(F)c(-c3ccc(N4CCOCC4)c(Cl)c3)cc2NC(=O)c2c[nH]c(=O)cc2C(F)(F)F)C[C@H](C)N1C [Example 68, N-[5-(3-chloro-4-morpholin-4-ylphenyl)-4-fluoro-2-[(3R,5S)-3,4,5-trimethylpiperazin-1-yl]phenyl]-6-oxo-4-(trifluoromethyl)-1H-pyridine-3-carboxamide]	1.34 nM
C[C@@H]1CN(c2cc(F)c(-c3ccc4c(c3)OCCCO4)cc2NC(=O)c2c[nH]c(=O)cc2C(F)(F)F)C[C@H](C)N1C [Example 69, N-[5-(3,4-dihydro-2H-1,5-benzodioxepin-7-yl)-4-fluoro-2-[(3R,5S)-3,4,5-trimethylpiperazin-1-yl]phenyl]-6-oxo-4-(trifluoromethyl)-1H-pyridine-3-carboxamide]	0.225 nM
C[C@@H]1CN(c2cc(F)c(-c3ccc4c(c3)OCCO4)cc2NC(=O)c2c[nH]c(=O)cc2C(F)(F)F)C[C@H](C)N1C [Example 70, N-[5-(2,3-dihydro-1,4-benzodioxin-6-yl)-4-fluoro-2-[(3R,5S)-3,4,5-trimethylpiperazin-1-yl]phenyl]-6-oxo-4-(trifluoromethyl)-1H-pyridine-3-carboxamide]	0.429 nM
C[C@@H]1CN(c2cc(F)c(-c3ccc4c(c3)OCCN4C)cc2NC(=O)c2c[nH]c(=O)cc2C(F)(F)F)C[C@H](C)N1C [Example 71, N-[4-fluoro-5-(4-methyl-2,3-dihydro-1,4-benzoxazin-7-yl)-2-[(3R,5S)-3,4,5-trimethylpiperazin-1-yl]phenyl]-6-oxo-4-(trifluoromethyl)-1H-pyridine-3-carboxamide]	0.623 nM
CC(=O)Nc1ncc(-c2cc(NC(=O)c3c[nH]c(=O)cc3C(F)(F)F)c(N3C[C@@H](C)N(C)[C@@H](C)C3)cc2F)cn1 [Example 72, N-[5-(2-acetamidopyrimidin-5-yl)-4-fluoro-2-[(3R,5S)-3,4,5-trimethylpiperazin-1-yl]phenyl]-6-oxo-4-(trifluoromethyl)-1H-pyridine-3-carboxamide]	0.823 nM
C[C@@H]1CN(c2cc(F)c(C3=CCN(c4ccccc4)CC3)cc2NC(=O)c2c[nH]c(=O)cc2C(F)(F)F)C[C@H](C)N1C [Example 73, N-[4-fluoro-5-(1-phenyl-3,6-dihydro-2H-pyridin-4-yl)-2-[(3R,5S)-3,4,5-trimethylpiperazin-1-yl]phenyl]-6-oxo-4-(trifluoromethyl)-1H-pyridine-3-carboxamide]	3.63 nM
C[C@@H]1CN(c2cc(F)c(-c3cnc(N4CCOCC4)nc3)cc2NC(=O)c2ccccc2)C[C@H](C)N1C [Example 74, N-[4-fluoro-5-(2-morpholin-4-ylpyrimidin-5-yl)-2-[(3R,5S)-3,4,5-trimethylpiperazin-1-yl]phenyl]benzamide]	253 nM
COc1cc(C(=O)Nc2cc(-c3cnc(N4CCOCC4)nc3)c(F)cc2N2C[C@@H](C)N(C)[C@@H](C)C2)ccc1F [Example 75, 4-fluoro-N-[4-fluoro-5-(2-morpholin-4-ylpyrimidin-5-yl)-2-[(3R,5S)-3,4,5-trimethylpiperazin-1-yl]phenyl]-3-methoxybenzamide]	40.9 nM
C[C@@H]1CN(c2cc(F)c(-c3cnc(N4CCOCC4)nc3)cc2NC(=O)c2cc(Cl)cc(Cl)c2)C[C@H](C)N1C [Example 76, 3,5-dichloro-N-[4-fluoro-5-(2-morpholin-4-ylpyrimidin-5-yl)-2-[(3R,5S)-3,4,5-trimethylpiperazin-1-yl]phenyl]benzamide]	2.07 nM
C[C@@H]1CN(c2cc(F)c(-c3cnc(N4CCOCC4)nc3)cc2NC(=O)c2n[nH]c(=O)cc2C(F)(F)F)C[C@H](C)N1C [Example 77, N-[4-fluoro-5-(2-morpholin-4-ylpyrimidin-5-yl)-2-[(3R,5S)-3,4,5-trimethylpiperazin-1-yl]phenyl]-6-oxo-4-(trifluoromethyl)-1H-pyridazine-3-carboxamide]	4.43 nM
C[C@@H]1CN(c2cc(F)c(-c3ccnc(N4CCOCC4)c3)cc2NC(=O)c2c[nH]c(=O)cc2C(F)(F)F)C[C@H](C)N1C [Example 83, N-[4-fluoro-5-(2-morpholin-4-ylpyridin-4-yl)-2-[(3R,5S)-3,4,5-trimethylpiperazin-1-yl]phenyl]-6-oxo-4-(trifluoromethyl)-1H-pyridine-3-carboxamide]	0.391 nM
COCCOc1ccc(-c2cc(NC(=O)c3c[nH]c(=O)cc3C(F)(F)F)c(N3C[C@@H](C)N(C)[C@@H](C)C3)cc2F)cn1 [Example 84, N-[4-fluoro-5-[6-(2-methoxyethoxy)pyridin-3-yl]-2-[(3R,5S)-3,4,5-trimethylpiperazin-1-yl]phenyl]-6-oxo-4-(trifluoromethyl)-1H-pyridine-3-carboxamide]	0.338 nM
C[C@@H]1CN(c2cc(F)c(-c3cccc(N4CCOCC4)c3)cc2NC(=O)c2c[nH]c(=O)cc2C(F)(F)F)C[C@H](C)N1C [Example 85, N-[4-fluoro-5-(3-morpholin-4-ylphenyl)-2-[(3R,5S)-3,4,5-trimethylpiperazin-1-yl]phenyl]-6-oxo-4-(trifluoromethyl)-1H-pyridine-3-carboxamide]	0.703 nM
COc1ccccc1C(=O)Nc1cc(-c2cnc(N3CCOCC3)nc2)c(F)cc1N1C[C@@H](C)N(C)[C@@H](C)C1 [Example 86, N-[4-fluoro-5-(2-morpholin-4-ylpyrimidin-5-yl)-2-[(3R,5S)-3,4,5-trimethylpiperazin-1-yl]phenyl]-2-methoxybenzamide]	204 nM
C[C@@H]1CN(c2cc(F)c(-c3cnc(N4CCOCC4)nc3)cc2NC(=O)c2ccc(F)cc2Cl)C[C@H](C)N1C [Example 87, 2-chloro-4-fluoro-N-[4-fluoro-5-(2-morpholin-4-ylpyrimidin-5-yl)-2-[(3R,5S)-3,4,5-trimethylpiperazin-1-yl]phenyl]benzamide]	8.21 nM
C[C@@H]1CN(c2cc(F)c(-c3cnc(N4CCOCC4)nc3)cc2NC(=O)c2cc(F)ccc2C(F)(F)F)C[C@H](C)N1C [Example 88, 5-fluoro-N-[4-fluoro-5-(2-morpholin-4-ylpyrimidin-5-yl)-2-[(3R,5S)-3,4,5-trimethylpiperazin-1-yl]phenyl]-2-(trifluoromethyl)benzamide]	24.1 nM
COc1cccc(C(=O)Nc2cc(-c3cnc(N4CCOCC4)nc3)c(F)cc2N2C[C@@H](C)N(C)[C@@H](C)C2)c1 [Example 89, N-[4-fluoro-5-(2-morpholin-4-ylpyrimidin-5-yl)-2-[(3R,5S)-3,4,5-trimethylpiperazin-1-yl]phenyl]-3-methoxybenzamide]	33.8 nM
C[C@@H]1CN(c2cc(F)c(C3=CCOCC3)cc2NC(=O)c2c[nH]c(=O)cc2C(F)(F)F)C[C@H](C)N1C [Example 94, N-[5-(3,6-dihydro-2H-pyran-4-yl)-4-fluoro-2-[(3R,5S)-3,4,5-trimethylpiperazin-1-yl]phenyl]-6-oxo-4-(trifluoromethyl)-1H-pyridine-3-carboxamide]	4.06 nM
C[C@@H]1CN(c2cc(F)c(C3=CCNCC3)cc2NC(=O)c2c[nH]c(=O)cc2C(F)(F)F)C[C@H](C)N1C [Example 95, N-[4-fluoro-2-[(3R,5S)-3,4,5-trimethylpiperazin-1-yl]-5-(1,2,3,6-tetrahydropyridin-4-yl)phenyl]-6-oxo-4-(trifluoromethyl)-1H-pyridine-3-carboxamide]	7.18 nM
C[C@@H]1CN(c2cc(F)c(-c3cc(Cl)c(O)c(C#N)c3)cc2NC(=O)c2c[nH]c(=O)cc2C(F)(F)F)C[C@H](C)N1C [Example 98, N-[5-(3-chloro-5-cyano-4-hydroxyphenyl)-4-fluoro-2-[(3R,5S)-3,4,5-trimethylpiperazin-1-yl]phenyl]-6-oxo-4-(trifluoromethyl)-1H-pyridine-3-carboxamide]	19.5 nM
C[C@@H]1CN(c2cc(F)c(-c3cnc(OCc4ccccc4)c(C#N)c3)cc2NC(=O)c2c[nH]c(=O)cc2C(F)(F)F)C[C@H](C)N1C [Example 99, N-[5-(5-cyano-6-phenylmethoxypyridin-3-yl)-4-fluoro-2-[(3R,5S)-3,4,5-trimethylpiperazin-1-yl]phenyl]-6-oxo-4-(trifluoromethyl)-1H-pyridine-3-carboxamide]	11.1 nM
C[C@@H]1CN(c2cc(F)c(-c3ccc(C#N)cc3)cc2NC(=O)c2c[nH]c(=O)cc2C(F)(F)F)C[C@H](C)N1C [Example 100, N-[5-(4-cyanophenyl)-4-fluoro-2-[(3R,5S)-3,4,5-trimethylpiperazin-1-yl]phenyl]-6-oxo-4-(trifluoromethyl)-1H-pyridine-3-carboxamide]	0.508 nM
C[C@@H]1CN(c2cc(F)c(-c3ccc(OC4CCOCC4)nc3)cc2NC(=O)c2c[nH]c(=O)cc2C(F)(F)F)C[C@H](C)N1C [Example 101, N-[4-fluoro-5-[6-(oxan-4-yloxy)pyridin-3-yl]-2-[(3R,5S)-3,4,5-trimethylpiperazin-1-yl]phenyl]-6-oxo-4-(trifluoromethyl)-1H-pyridine-3-carboxamide]	0.32 nM
C[C@@H]1CN(c2cc(F)c(-c3cccc(C#N)c3)cc2NC(=O)c2c[nH]c(=O)cc2C(F)(F)F)C[C@H](C)N1C [Example 102, N-[5-(3-cyanophenyl)-4-fluoro-2-[(3R,5S)-3,4,5-trimethylpiperazin-1-yl]phenyl]-6-oxo-4-(trifluoromethyl)-1H-pyridine-3-carboxamide]	2.08 nM
